Assay results published in publication PMC4610172, “5-Arylaminouracil Derivatives as Potential Dual-Action Agents” (Acta Naturae, 2015).

How the values were obtained:
[1] = tested on: Mycobacterium tuberculosis; parameters: method as in PMID 26061192; settings: cited from earlier work
MT-4 cell line = experiment: Cytotoxicity in vitro in MT-4 cells (propidium iodide uptake, automatic cell counter); format: cell-based; settings: highest concentration tested
Experimental: We tested the compounds for potential cytotoxicity in the MT-4 cell line using an automatic cell counter (ChemoMetec). The number of live and dead cells was counted in the control cultures, and the cultures were treated with compound (6), (7), or (19). Compounds (6) and (7) were tested at concentrations of 0.136–33 μM (0.035–9 μg/mL), and compound (19) was tested at concentrations of 0.272–66 μM (0.119–28 μg/mL).
We discriminated live from dead cells by evaluating propidium iodide uptake according to the manufacturer’s instructions. We collected and analyzed data using the Nucleoview software (version 1.0,ChemoMetec).

human tonsillar tissue = experiment: Toxicity ex vivo in human tonsillar tissue (flow cytometry of cell phenotypes); format: cell-based; settings: 12 days culture
Experimental: The cytotoxicity of compounds (6), (7), and (19) was determined in human tonsillar tissues. A total of 27 tissue blocks were incubated with compound (19) (20 μg/mL) or with compound (6) or (7) ( 5 μg/mL) for each experimental point. Tissue blocks were cultured for 12 days. Then, the cells were isolated from the control and treated and stained with combinations of fluorescence- labeled antibodies against CD3-QD605, CD4- QD655, CD8-QD705, CD25-APC, CD38-PE, HLA-DRAPC- Cy7, CXCR4-Brilliant violet 421, CCR5-PR-Cy5 CD45RA-FITC, and CCR7-PE-Cy7 (Caltag Laboratories; Biolegend). We determined the numbers of cells of different phenotypes in isolated suspensions using flow cytometry as previously described. The volume of an analyzed suspension was controlled by means of Trucount beads (Becton Dickinson); the number of counted cells was normalized to the weight of the tissue fragments used for cell isolation.

[2] = biological target: T1, HIV-1 reverse transcriptase (p66/p51 heterodimer) (Human immunodeficiency virus type 1 group M subtype B, UniProt P04585); experiment: Inhibition of recombinant HIV-1 reverse transcriptase (Dixon's method, noncompetitive); format: biochemical; settings: Dixon's method for noncompetitive inhibitors; read-out: Ki (inhibition constant)
T1 construct: recombinant HIV-1 reverse transcriptase (p66/p51 heterodimer); made in house
Experimental: Isolation of recombinant HIV-1 reverse transcriptase (p66/p51 heterodimer) and determination of its activity were performed as described earlier. The inhibition constant (Ki), calculated according to Dixon’s method for noncompetitive inhibitors, was used as a quantitative measure of the inhibitory activity of the compounds. Nevirapine, a first-generation HIV NNRTI, was used as a control.

Row | SMILES | Concentration of total inhibition of mycobacterium growth [1] | Maximum concentration at which neither cytotoxic nor cytostatic effect was observed (MT-4 cell line) | Ki [2] | other results
1 | CCCCc1ccc(Nc2n[nH]c(=O)[nH]c2=O)cc1 [Compound 10] | 5 to 40 µg/mL | – | – | –
2 | CCCCc1ccc(Nc2c[nH]c(=O)[nH]c2=O)cc1 [Compound 6] | 5 to 40 µg/mL | ≥ 33 µM | – | Cytotoxicity on different cell types in the tissue (T, B, CD4+, CD8+ and CD4+ subgroups) (human tonsillar tissue; 5 μg/mL): lack of significant death rates
3 | Cc1cccc(Nc2c[nH]c(=O)[nH]c2=O)c1 [Compound 2] | 5 to 40 µg/mL | – | – | –
4 | CCCCOc1ccc(Nc2cn(C3C=CC(O)C3)c(=O)n(C3C=CC(O)C3)c2=O)cc1 (stereo not drawn) [Compound 19] | 5 to 40 µg/mL | ≥ 66 µM | – | Cytotoxicity on different cell types in the tissue (T, B, CD4+, CD8+ and CD4+ subgroups) (human tonsillar tissue; 20 μg/mL): lack of significant death rates
5 | O=c1c(Nc2ccccc2)cn(C2C=CC(O)C2)c(=O)n1Cc1ccccc1 (stereo not drawn) [Compound 21, 1-(4’-Hydroxy-2’-cyclopenten-1’-yl)-3-benzyl-5-(phenylamino) uracil] | – | – | > 100 µM | –
6 | CCCCOc1ccc(Nc2c[nH]c(=O)[nH]c2=O)cc1 [Compound 7] | 5 to 40 µg/mL | ≥ 33 µM | – | Cytotoxicity on different cell types in the tissue (T, B, CD4+, CD8+ and CD4+ subgroups) (human tonsillar tissue; 5 μg/mL): lack of significant death rates
7 | Cc1ccc(Nc2c[nH]c(=O)[nH]c2=O)cc1 [Compound 3] | 5 to 40 µg/mL | – | – | –
8 | O=c1[nH]c(=O)n(C2C=CC(O)C2)cc1Nc1ccc(Oc2ccccc2)cc1 (stereo not drawn) [Compound 15] | – | – | 119 µM | –
9 | Cc1ccc(Nc2cn(C3C=CC(O)C3)c(=O)n(Cc3ccccc3)c2=O)cc1 (stereo not drawn) [Compound 22, 1-(4’-Hydroxy-2’-cyclopenten-1’-yl)-3-benzyl-5-(p-methylphenylamino) uracil] | – | – | 60 µM | –
